Experimental data as given in patent US9493447B2, “Optically active PDE10 inhibitor” (OMEROS CORPORATION, priority 2014, dated 2016).

Legend:
PDE10 = conditions: from Soderling and Beavo 2000; read-out: IC50 (50% inhibitory concentration) PDE10; cited from earlier work
Human PDE10 = Human PDE10 (Homo sapiens (Human), UniProt Q9Y233); assay: Inhibition of Human PDE10 (Example 13, SPA assay); assay type: biochemical; conditions: substrate 125 nM H-cGMP; all three compounds tested in the same experiment
Description: (§1) The PDE assay medium consisted of (final concentrations); 50 mM Tris-HCL, pH 7.5; 8.3 mM MgCl2; 1.7 mM EGTA; 0.5 mg/mL bovine serum albumin; and substrate (H-cAMP or H-cGMP). The BSA was lyophilized powder, essentially fatty acid free, ≧96% pure from Sigma (A6003).

PDE2A = PDE2A (Homo sapiens (Human), UniProt O00408); assay: PDE selectivity SPA assay, PDE2A; assay type: biochemical; conditions: substrate 37 nM H-cGMP
Description: as §1

PDE5A = PDE5A (Homo sapiens (Human), UniProt O76074); assay: PDE selectivity SPA assay, PDE5A; assay type: biochemical; conditions: substrate 37 nM H-cGMP
Description: as §1

bovine PDE6 = bovine PDE6 (Bos taurus, UniProt P11541+P23439); assay: PDE selectivity assay, PDE6; assay type: biochemical
Description: as §1

PDE10A2 = PDE10A2 (Homo sapiens (Human), UniProt Q9Y233); assay: PDE selectivity SPA assay, PDE10A2; assay type: biochemical; conditions: Table 1 selectivity profile
Description: as §1

Human PDE10, sequence (Q9Y233 267-1055): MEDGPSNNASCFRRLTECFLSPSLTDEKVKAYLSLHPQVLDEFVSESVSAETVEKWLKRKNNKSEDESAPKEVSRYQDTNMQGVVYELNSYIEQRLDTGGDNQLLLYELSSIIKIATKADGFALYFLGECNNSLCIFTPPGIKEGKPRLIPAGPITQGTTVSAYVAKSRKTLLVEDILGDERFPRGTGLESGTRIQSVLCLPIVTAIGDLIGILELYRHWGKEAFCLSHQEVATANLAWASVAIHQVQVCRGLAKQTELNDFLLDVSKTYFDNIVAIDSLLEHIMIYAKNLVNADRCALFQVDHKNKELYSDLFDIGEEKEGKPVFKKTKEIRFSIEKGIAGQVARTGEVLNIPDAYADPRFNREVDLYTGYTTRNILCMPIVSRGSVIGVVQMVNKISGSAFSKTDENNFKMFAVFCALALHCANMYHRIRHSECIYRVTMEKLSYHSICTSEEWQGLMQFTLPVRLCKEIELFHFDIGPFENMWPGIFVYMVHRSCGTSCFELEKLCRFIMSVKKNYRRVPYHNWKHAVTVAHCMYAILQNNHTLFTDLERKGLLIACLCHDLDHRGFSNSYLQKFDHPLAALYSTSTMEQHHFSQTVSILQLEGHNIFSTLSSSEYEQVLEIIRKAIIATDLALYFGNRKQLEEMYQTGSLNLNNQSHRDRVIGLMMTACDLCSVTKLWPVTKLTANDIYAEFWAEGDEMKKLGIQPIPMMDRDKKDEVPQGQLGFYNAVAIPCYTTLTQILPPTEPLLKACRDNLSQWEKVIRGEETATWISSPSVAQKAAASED
PDE10A2, sequence (Q9Y233 267-1055): as above
bovine PDE6, sequence (P11541 2-859 limits assumed): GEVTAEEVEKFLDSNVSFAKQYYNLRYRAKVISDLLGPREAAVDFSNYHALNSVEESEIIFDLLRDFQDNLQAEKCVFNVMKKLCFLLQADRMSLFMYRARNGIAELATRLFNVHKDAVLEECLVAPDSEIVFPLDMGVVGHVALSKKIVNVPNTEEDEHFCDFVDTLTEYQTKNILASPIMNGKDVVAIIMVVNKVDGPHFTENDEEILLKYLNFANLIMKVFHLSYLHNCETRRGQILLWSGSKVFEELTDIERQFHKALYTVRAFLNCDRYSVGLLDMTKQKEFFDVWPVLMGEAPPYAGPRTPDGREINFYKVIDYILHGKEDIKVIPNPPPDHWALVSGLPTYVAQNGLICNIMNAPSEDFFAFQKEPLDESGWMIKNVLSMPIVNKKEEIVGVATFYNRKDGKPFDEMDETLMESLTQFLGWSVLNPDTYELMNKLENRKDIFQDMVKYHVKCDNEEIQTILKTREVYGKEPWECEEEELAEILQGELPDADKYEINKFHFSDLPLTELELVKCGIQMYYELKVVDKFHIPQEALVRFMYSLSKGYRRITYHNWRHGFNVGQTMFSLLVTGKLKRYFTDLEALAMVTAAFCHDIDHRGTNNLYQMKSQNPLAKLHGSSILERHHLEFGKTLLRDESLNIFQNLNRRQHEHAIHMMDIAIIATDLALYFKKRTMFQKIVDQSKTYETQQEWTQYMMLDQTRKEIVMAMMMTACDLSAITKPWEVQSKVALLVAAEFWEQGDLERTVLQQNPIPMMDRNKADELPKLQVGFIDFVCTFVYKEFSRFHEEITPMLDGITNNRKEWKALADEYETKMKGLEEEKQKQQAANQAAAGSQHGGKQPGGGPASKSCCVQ
bovine PDE6, sequence (P23439 2-853 limits assumed): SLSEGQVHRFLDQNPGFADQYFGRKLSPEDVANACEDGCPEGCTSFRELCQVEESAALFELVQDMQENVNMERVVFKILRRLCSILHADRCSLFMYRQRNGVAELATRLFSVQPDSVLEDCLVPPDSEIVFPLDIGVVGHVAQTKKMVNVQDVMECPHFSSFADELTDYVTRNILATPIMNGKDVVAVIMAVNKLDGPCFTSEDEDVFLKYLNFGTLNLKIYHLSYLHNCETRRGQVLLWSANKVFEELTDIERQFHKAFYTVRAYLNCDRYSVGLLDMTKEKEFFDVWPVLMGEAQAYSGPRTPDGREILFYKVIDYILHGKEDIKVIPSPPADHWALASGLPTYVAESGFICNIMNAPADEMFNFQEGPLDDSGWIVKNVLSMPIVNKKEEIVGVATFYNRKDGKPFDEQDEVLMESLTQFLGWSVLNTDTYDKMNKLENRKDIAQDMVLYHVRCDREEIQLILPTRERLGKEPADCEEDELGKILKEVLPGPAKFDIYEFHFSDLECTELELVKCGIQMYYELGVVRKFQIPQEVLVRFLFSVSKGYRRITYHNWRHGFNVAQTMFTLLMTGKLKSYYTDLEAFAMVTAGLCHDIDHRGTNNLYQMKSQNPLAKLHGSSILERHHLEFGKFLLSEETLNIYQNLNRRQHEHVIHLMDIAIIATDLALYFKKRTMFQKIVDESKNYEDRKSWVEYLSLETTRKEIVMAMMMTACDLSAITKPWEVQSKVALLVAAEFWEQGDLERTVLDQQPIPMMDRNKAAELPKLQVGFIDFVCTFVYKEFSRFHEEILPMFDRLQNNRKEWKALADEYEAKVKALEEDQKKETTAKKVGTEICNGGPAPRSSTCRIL
PDE2A, sequence (O00408 whole entry): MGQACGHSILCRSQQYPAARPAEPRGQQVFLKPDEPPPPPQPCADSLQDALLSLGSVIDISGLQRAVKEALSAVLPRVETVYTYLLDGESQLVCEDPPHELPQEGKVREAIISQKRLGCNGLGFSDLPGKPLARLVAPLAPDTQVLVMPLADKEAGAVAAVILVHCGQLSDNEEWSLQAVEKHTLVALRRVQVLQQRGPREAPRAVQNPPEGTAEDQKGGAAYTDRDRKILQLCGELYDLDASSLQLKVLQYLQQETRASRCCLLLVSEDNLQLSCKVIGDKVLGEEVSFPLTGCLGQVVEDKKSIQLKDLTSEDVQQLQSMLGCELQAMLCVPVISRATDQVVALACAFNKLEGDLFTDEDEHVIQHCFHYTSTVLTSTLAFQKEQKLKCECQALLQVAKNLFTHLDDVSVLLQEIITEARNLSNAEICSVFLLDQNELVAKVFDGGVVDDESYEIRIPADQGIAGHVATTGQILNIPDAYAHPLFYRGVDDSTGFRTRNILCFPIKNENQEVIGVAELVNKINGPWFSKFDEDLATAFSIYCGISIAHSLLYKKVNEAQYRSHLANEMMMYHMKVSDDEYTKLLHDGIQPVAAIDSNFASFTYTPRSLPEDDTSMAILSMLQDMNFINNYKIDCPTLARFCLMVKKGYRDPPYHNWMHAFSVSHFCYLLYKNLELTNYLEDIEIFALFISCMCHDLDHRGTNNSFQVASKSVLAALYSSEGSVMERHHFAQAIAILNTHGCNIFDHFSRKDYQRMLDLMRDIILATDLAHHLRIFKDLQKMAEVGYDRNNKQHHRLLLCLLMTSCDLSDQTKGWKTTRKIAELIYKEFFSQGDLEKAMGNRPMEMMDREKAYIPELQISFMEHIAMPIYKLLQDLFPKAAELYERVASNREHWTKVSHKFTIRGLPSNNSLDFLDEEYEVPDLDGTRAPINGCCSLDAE

SMILES: CC(C)Cn1c(=O)n(C)c(=O)c2[nH]cnc21 [IBMX]
- IC50 (PDE10): 2600 nM

SMILES: CCO[C@H](C(=O)c1ccc(-c2cc(OC)c(Cl)c(OC)c2)o1)c1ccc(-c2nnc(C)s2)cc1 [Compound 2001, (S)-1-(5-(4-chloro-3,5-dimethoxyphenyl)furan-2-yl)-2-ethoxy-2-(4-(5-methyl-1,3,4-thiadiazol-2-yl)phenyl)ethanone]
- IC50 (Human PDE10): 0.44 nM

SMILES: CCOC(C(=O)c1ccc(-c2cc(OC)c(Cl)c(OC)c2)o1)c1ccc(-c2nnc(C)s2)cc1 (racemic) [Compound 1001, 1-(5-(4-chloro-3,5-dimethoxyphenyl)furan-2-yl)-2-ethoxy-2-(4-(5-methyl-1,3,4-thiadiazol-2-yl)phenyl)ethanone]
- IC50 (PDE2A): 545 nM
- IC50 (PDE5A): 5740 nM
- IC50 (bovine PDE6): > 3000 nM
- IC50 (PDE10A2): 0.62 nM
- IC50 (Human PDE10): 0.62 nM

SMILES: CCO[C@@H](C(=O)c1ccc(-c2cc(OC)c(Cl)c(OC)c2)o1)c1ccc(-c2nnc(C)s2)cc1 [Compound 3001]
- IC50 (Human PDE10): 5.8 nM
